Our source for the EC50 values is US11518760B2 (Liverpool School of Tropical Medicine, priority 2017, dated 2022).

Where only a bound is given, the exact number is not on record here.

For this assay, the system named is C6/36 Aedes albopictus cell line infected with Wolbachia pipientis (Wolbachia strain wAlbB). In words: In vitro insect cell line assay (anti-Wolbachia screen, SYTO 11 high content imaging). Conditions: 168 h; C6/36 Aedes albopictus cells infected with Wolbachia pipientis wAlbB, 7 days incubation, SYTO 11 imaging; read-out: In vitro anti-Wolbachia activity. It is filed as cell-based. As for the experimental part:
A C6/36 Aedes albopictus cell line infected with Wolbachia pipientis (Wolbachia strain wAlbB) derived from Aa23 A. albopictus cell line (O'Neill et al., 1997; Insect Mol Biol; Turner et al., (2006) J. Immunol. 7:1240-1249) was used to screen compounds. Cells were cultured in Leibovitz's L15+L-glutamine supplemented with heat-inactivated Foetal Calf Serum (HI-FCS), non-essential amino acids and tryptose phosphate broth. Culture medium was filter-sterilized through a 0.2 μm filter and stored at 4° C. Compounds were provided as 10 mM stocks in DMSO, diluted to 50 μM working stock to give final concentration of 5 μM on the test plate. Concentrated stocks were frozen at −20° C.
Prior to use in the screening assay, cell cultures were sub-passaged (6 days prior) to provide ˜90% confluent cells on Day 0 of screening assay. On Day 0 (assay set-up), the medium was removed from the stock culture flask and replaced with fresh medium. The cells were detached by scraping and cell density was calculated using an automated cell counter. The cells were then diluted at working density and aliquoted at 90 μl to each well of a Cell Carrier 384 well plate (Perkin Elmer). Cell plates were incubated at 26° C.
Control solution (DMSO-medium) was dispensed at 10 μl per well for “untreated” wells. Test solution (Drug-DMSO) was also dispensed at 10 μl (from working plate) per well for “treated” wells. The plates were incubated at 26° C., inside plastic wallet in incubator, for 7 days.
On Day 7, 25 μl of staining medium/dye (SYTO 11, Life Technologies) was added to each sample well and allowed to stain for 15 minutes in the dark. All the medium was removed from each sample well without disturbing the cells and replaced with 100 μl of fresh medium. Plates were imaged on the Operetta High Content Imaging system (Perkin Elmer) and analyzed using texture analysis through Harmony software (Perkin Elmer). The cell-based screen and analysis are described in detail in Clare et al. (2014) J Biomol Screen.

As to `FC(F)O[C@@H]1CCN(c2nc(NCc3cccnc3C(F)(F)F)c3cccnc3n2)C1` [Example 280, (R)-2-(3-(difluoromethoxy)pyrrolidin-1-yl)-N-((2-(trifluoromethyl)pyridin-3-yl)methyl)pyrido[2,3-d]pyrimidin-4-amine], the EC50 fell in the range of 0.01 to 1 nM.

On to `FC1(F)CCN(c2nc(N3CCC3c3ccccc3C(F)(F)F)c3cccnc3n2)CC1` (stereo not shown) [Example 213, 2-(4,4-difluoropiperidin-1-yl)-4-(2-(2-(trifluoromethyl)phenyl)azetidin-1-yl)pyrido[2,3-d]pyrimidine], for which the EC50 is 10 to 100 nM.

With `FC1(F)CCN(c2nc(NCc3ccccc3C(F)(F)F)c3cccnc3n2)CC1` [Example 196, 2-(4,4-difluoropiperidin-1-yl)-N-(2-(trifluoromethyl)benzyl)pyrido[2,3-d]pyrimidin-4-amine], the EC50 was 0.01 to 1 nM.

In the case of `FC1CN(c2nc(NCc3cccnc3C(F)(F)F)c3cccnc3n2)C1` [Example 200, 2-(3-fluoroazetidin-1-yl)-N-((2-(trifluoromethyl)pyridin-3-yl)methyl)pyrido[2,3-d]pyrimidin-4-amine], the EC50 was in the range of 10 to 100 nM.

With `FC(F)C1CN(c2nc(NCc3ccccc3C(F)(F)F)c3cccnc3n2)C1` [Example 276, 2-(3-(difluoromethyl)azetidin-1-yl)-N-(2-(trifluoromethyl)benzyl)pyrido[2,3-d]pyrimidin-4-amine], the EC50 is below 0.01 nM.

`CCN(CC)c1ncnc2ccsc12` [Example 39]: the EC50 lay in the range of 1000 to 100000 nM.

Consider `FC(F)(F)c1ncccc1CNc1nc(N2CCCC(C(F)(F)F)C2)nc2ncccc12` (stereo not shown) [Example 249, 2-(3-(trifluoromethyl)piperidin-1-yl)-N-((2-(trifluoromethyl)pyridin-3-yl)methyl)pyrido[2,3-d]pyrimidin-4-amine], for which the EC50 is below 0.01 nM.

With `FC(F)(F)OC1CCN(c2nc(NCc3cccnc3C(F)(F)F)c3cccnc3n2)C1` (stereo not shown) [Example 297, 2-(3-(trifluoromethoxy)pyrrolidin-1-yl)-N-((2-(trifluoromethyl)pyridin-3-yl)methyl)pyrido[2,3-d]pyrimidin-4-amine], the EC50 was below 0.01 nM.

For `FC(F)(F)c1ccccc1CNc1nc(N2CCOCC2)nc2ccsc12` [Example 94, 2-morpholino-N-(2-(trifluoromethyl)benzyl)thieno[3,2-d]pyrimidin-4-amine], the EC50 lay in the range of 1000 to 100000 nM.

As to `COc1ccc2c(NCc3cccnc3C(F)(F)F)nc(N3CCOCC3C)nc2n1` (stereo not shown) [Example 305, 7-methoxy-2-(3-methylmorpholino)-N-((2-(trifluoromethyl)pyridin-3-yl)methyl)pyrido[2,3-d]pyrimidin-4-amine], the EC50 is 1000 to 100000 nM.

As to `CC1CN(c2nc(NCc3cccnc3C(F)(F)F)c3cccnc3n2)C[C@H](C)O1` (stereo partly drawn) [Example 254, 2-((6S)-2,6-dimethylmorpholino)-N-((2-(trifluoromethyl)pyridin-3-yl)methyl)pyrido[2,3-d]pyrimidin-4-amine], the EC50 was 0.01 to 1 nM.

For the compound `CC1CCN1c1nc(NCc2cccnc2C(F)(F)F)c2cccnc2n1` (stereo not shown) [Example 172, 2-(2-methylazetidin-1-yl)-N-((2-(trifluoromethyl)pyridin-3-yl)methyl)pyrido[2,3-d]pyrimidin-4-amine], the EC50 was in the range of 0.01 to 1 nM.

As for `FC(F)(F)c1ncccc1CNc1nc(N2CCCC2C(F)(F)F)nc2ncccc12` (stereo not shown) [Example 264, N-((2-(trifluoromethyl)pyridin-3-yl)methyl)-2-(2-(trifluoromethyl)pyrrolidin-1-yl)pyrido[2,3-d]pyrimidin-4-amine], the EC50 is below 0.01 nM.

Turning to `FC(F)(F)c1ccccc1C1CCCN1c1ncnc2ccsc12` (stereo not shown) [Example 79], the EC50 fell in the range of 100 to 1000 nM.

For the compound `CC(C)S(=O)(=O)c1nc(NCc2cccnc2C(F)(F)F)c2cccnc2n1` [Example 179, 2-(isopropylsulfonyl)-N-((2-(trifluoromethyl)pyridin-3-yl)methyl)pyrido[2,3-d]pyrimidin-4-amine], the EC50 lay within 10 to 100 nM.

Turning to `CC(C)Nc1nc(NCc2ccccc2C(F)(F)F)c2sccc2n1` [Example 28, N^2-isopropyl-N^4-(2-(trifluoromethyl)benzyl)thieno[3,2-d]pyrimidine-2,4-diamine], the EC50 was 10 to 100 nM.

Consider `FC(F)(F)c1ncccc1CNc1nc(N2CCC(C(F)(F)F)CC2)nc2ncccc12` [Example 235, 2-(4-(trifluoromethyl)piperidin-1-yl)-N-((2-(trifluoromethyl)pyridin-3-yl)methyl)pyrido[2,3-d]pyrimidin-4-amine], for which the EC50 lay within 0.01 to 1 nM.

As to `FC(F)(F)c1ncccc1CNc1nc(NC2CNC2)nc2ncccc12` [Example 147, N^2-(azetidin-3-yl)-N^4-((2-(trifluoromethyl)pyridin-3-yl)methyl)pyrido[2,3-d]pyrimidine-2,4-diamine], the EC50 was in the range of 1000 to 100000 nM.

Turning to `CC1COCCN1Cc1nc(NCc2ccccc2C(F)(F)F)c2cccnc2n1` (stereo not shown) [Example 224], the EC50 is 1000 to 100000 nM.

Turning to `COc1nc(N(C)C(C)c2ccccc2C(F)(F)F)c2sccc2n1` (stereo not shown) [Example 68, 2-methoxy-N-methyl-N-(1-(2-(trifluoromethyl)phenyl)ethyl)thieno[3,2-d]pyrimidin-4-amine], the EC50 was 10 to 100 nM.

Regarding `CC(C)Nc1nc(NCc2ccccc2S(C)(=O)=O)c2ccccc2n1` [Example 112, N^2-isopropyl-N^4-(2-(methylsulfonyl)benzyl)quinazoline-2,4-diamine], the EC50 was 100 to 1000 nM.

For the compound `CC1COC[C@@H](C)N1c1nc(NCc2ccccc2C(F)(F)F)c2cccnc2n1` (stereo partly drawn) [Example 277, 2-((3R)-3,5-dimethylmorpholino)-N-(2-(trifluoromethyl)benzyl)pyrido[2,3-d]pyrimidin-4-amine], the EC50 was in the range of 10 to 100 nM.

For the compound `C[C@H]1OCCN(c2nc(NCc3cccnc3C(F)(F)F)c3cccnc3n2)[C@H]1C` [Example 287, 2-((2R,3S)-2,3-dimethylmorpholino)-N-((2-(trifluoromethyl)pyridin-3-yl)methyl)pyrido[2,3-d]pyrimidin-4-amine], the EC50 lay in the range of 0.01 to 1 nM.

On to `C[C@@H]1COCCN1c1nc(NCc2cccnc2C(F)(F)F)c2cccnc2n1` [Example 211, (R)-2-(3-methylmorpholino)-N-((2-(trifluoromethyl)pyridin-3-yl)methyl)pyrido[2,3-d]pyrimidin-4-amine], for which the EC50 lay within 10 to 100 nM.

For the compound `CC(C)Sc1nc(NCc2cccnc2C(F)(F)F)c2cccnc2n1` [Example 164, 2-(isopropylthio)-N-((2-(trifluoromethyl)pyridin-3-yl)methyl)pyrido[2,3-d]pyrimidin-4-amine], the EC50 fell in the range of 1 to 10 nM.

`CC(C)Nc1nc(NCc2cccnc2C(F)(F)F)c2ccccc2n1` [Example 151, N^2-isopropyl-N^4-((2-(trifluoromethyl)pyridin-3-yl)methyl)quinazoline-2,4-diamine]: the EC50 lay within 100 to 1000 nM.

Take `N#CC1CN(c2nc(NCc3ccccc3C(F)(F)F)c3cccnc3n2)C1` [Example 245, 1-(4-((2-(trifluoromethyl)benzyl)amino)pyrido[2,3-d]pyrimidin-2-yl)azetidine-3-carbonitrile]: the EC50 lay within 1 to 10 nM.

As to `FC(F)(F)c1cnn(-c2nc(NCc3cccnc3C(F)(F)F)c3cccnc3n2)c1` [Example 203, 2-(4-(trifluoromethyl)-1H-pyrazol-1-yl)-N-((2-(trifluoromethyl)pyridin-3-yl)methyl)pyrido[2,3-d]pyrimidin-4-amine], the EC50 lay within 100 to 1000 nM.

For `CC(C)Nc1nc(NCc2ccc(C(F)(F)F)cc2)c2sccc2n1` [Example 109, N^2-isopropyl-N^4-(4-(trifluoromethyl)benzyl)thieno[3,2-d]pyrimidine-2,4-diamine], the EC50 was in the range of 1000 to 100000 nM.

Turning to `N#CC1CCCN(c2nc(NCc3ccccc3C(F)(F)F)c3cccnc3n2)C1` (stereo not shown) [Example 262, 1-(4-((2-(trifluoromethyl)benzyl)amino)pyrido[2,3-d]pyrimidin-2-yl)piperidine-3-carbonitrile], the EC50 was 0.01 to 1 nM.

On to `COc1ccccc1CNc1nc(NC(C)C)nc2ccsc12` [Example 132, N^2-isopropyl-N^4-(2-methoxybenzyl)thieno[3,2-d]pyrimidine-2,4-diamine], for which the EC50 was 1000 to 100000 nM.

On to `CC(C)Nc1cc(NCc2cccnc2C(F)(F)F)c2cccnc2n1` [Example 165, N^2-isopropyl-N^4-((2-(trifluoromethyl)pyridin-3-yl)methyl)-1,8-naphthyridine-2,4-diamine], for which the EC50 lay within 10 to 100 nM.

Turning to `CC(c1ccccc1C(F)(F)F)N(C)c1nc(Cl)nc2ccsc12` (stereo not shown) [Example 67, 2-chloro-N-methyl-N-(1-(2-(trifluoromethyl)phenyl)ethyl)thieno[3,2-d]pyrimidin-4-amine], the EC50 was in the range of 100 to 1000 nM.

On to `C[C@@H]1COCCN1c1nc(NCc2ccccc2C(F)(F)F)c2cccnc2n1` [Example 209, (R)-2-(3-methylmorpholino)-N-(2-(trifluoromethyl)benzyl)pyrido[2,3-d]pyrimidin-4-amine], for which the EC50 was 10 to 100 nM.
